Reference: US20230303497A1, “BENZYLAMINE OR BENZYL ALCOHOL DERIVATIVE AND USES THEREOF” (CHENGDU HYPERWAY PHARMACEUTICALS CO., LTD, priority 2020, published 2023)
Like-named read-outs stand apart in the source and are kept apart here.

Biological target: human NaV1.8 ion channel (Homo sapiens (Human), UniProt Q9Y5Y9)
Experiment: Compound inhibition activity on human NaV1.8 ion channel in HEK293 cells (whole-cell patch clamp)
Type: cell-based
Description: Test Case 1: Compound Inhibition Activity on Human NaV1.8 Ion Channel in HEK293 Cells
The final concentrations of the test compounds are prepared on the same day and then dissolved in extracellular solution. […] The intracellular solution (mM) contains: Aspartic acid, 140; MgCl2, 2; EGTA 11; HEPES, 10; pH 7.2 (CsOH titration). All test solutions contain 1 μM TTX.
The test solution are stored at a concentration of 3 mM in dimethyl sulfoxide (DMSO). The solutions will be dissolved in extracellular solution on the day of testing and prepared to the required concentration.
All experiments were performed at room temperature. Each cell itself is taken as the corresponding control.
At least one cell is tested per concentration.
HEK293 cell steady expressing NaV1.8 ion channel.
The intracellular fluid (mM) contains: Aspartic acid, 140; MgCl2, 2; EGTA 11; HEPES, 10; pH 7.2 (CsOH titration). […] Electrodes are drawn with PC-10 (Narishige, Japan). Recording is performed with whole-cell diaphragm clamp.
The cells are clamped at −80 mV and then depolarized to 10 mV with a sustained 10 ms square wave to give a Nav1.8 current. This procedure is repeated every 5 seconds.

[1] = 100 nm concentration, HEK293 cells, resting protocol, read-out: Inhibition ratio of compounds against Nav1.8 (Activity of inhibition)

Chain of human NaV1.8 ion channel (Q9Y5Y9 whole entry): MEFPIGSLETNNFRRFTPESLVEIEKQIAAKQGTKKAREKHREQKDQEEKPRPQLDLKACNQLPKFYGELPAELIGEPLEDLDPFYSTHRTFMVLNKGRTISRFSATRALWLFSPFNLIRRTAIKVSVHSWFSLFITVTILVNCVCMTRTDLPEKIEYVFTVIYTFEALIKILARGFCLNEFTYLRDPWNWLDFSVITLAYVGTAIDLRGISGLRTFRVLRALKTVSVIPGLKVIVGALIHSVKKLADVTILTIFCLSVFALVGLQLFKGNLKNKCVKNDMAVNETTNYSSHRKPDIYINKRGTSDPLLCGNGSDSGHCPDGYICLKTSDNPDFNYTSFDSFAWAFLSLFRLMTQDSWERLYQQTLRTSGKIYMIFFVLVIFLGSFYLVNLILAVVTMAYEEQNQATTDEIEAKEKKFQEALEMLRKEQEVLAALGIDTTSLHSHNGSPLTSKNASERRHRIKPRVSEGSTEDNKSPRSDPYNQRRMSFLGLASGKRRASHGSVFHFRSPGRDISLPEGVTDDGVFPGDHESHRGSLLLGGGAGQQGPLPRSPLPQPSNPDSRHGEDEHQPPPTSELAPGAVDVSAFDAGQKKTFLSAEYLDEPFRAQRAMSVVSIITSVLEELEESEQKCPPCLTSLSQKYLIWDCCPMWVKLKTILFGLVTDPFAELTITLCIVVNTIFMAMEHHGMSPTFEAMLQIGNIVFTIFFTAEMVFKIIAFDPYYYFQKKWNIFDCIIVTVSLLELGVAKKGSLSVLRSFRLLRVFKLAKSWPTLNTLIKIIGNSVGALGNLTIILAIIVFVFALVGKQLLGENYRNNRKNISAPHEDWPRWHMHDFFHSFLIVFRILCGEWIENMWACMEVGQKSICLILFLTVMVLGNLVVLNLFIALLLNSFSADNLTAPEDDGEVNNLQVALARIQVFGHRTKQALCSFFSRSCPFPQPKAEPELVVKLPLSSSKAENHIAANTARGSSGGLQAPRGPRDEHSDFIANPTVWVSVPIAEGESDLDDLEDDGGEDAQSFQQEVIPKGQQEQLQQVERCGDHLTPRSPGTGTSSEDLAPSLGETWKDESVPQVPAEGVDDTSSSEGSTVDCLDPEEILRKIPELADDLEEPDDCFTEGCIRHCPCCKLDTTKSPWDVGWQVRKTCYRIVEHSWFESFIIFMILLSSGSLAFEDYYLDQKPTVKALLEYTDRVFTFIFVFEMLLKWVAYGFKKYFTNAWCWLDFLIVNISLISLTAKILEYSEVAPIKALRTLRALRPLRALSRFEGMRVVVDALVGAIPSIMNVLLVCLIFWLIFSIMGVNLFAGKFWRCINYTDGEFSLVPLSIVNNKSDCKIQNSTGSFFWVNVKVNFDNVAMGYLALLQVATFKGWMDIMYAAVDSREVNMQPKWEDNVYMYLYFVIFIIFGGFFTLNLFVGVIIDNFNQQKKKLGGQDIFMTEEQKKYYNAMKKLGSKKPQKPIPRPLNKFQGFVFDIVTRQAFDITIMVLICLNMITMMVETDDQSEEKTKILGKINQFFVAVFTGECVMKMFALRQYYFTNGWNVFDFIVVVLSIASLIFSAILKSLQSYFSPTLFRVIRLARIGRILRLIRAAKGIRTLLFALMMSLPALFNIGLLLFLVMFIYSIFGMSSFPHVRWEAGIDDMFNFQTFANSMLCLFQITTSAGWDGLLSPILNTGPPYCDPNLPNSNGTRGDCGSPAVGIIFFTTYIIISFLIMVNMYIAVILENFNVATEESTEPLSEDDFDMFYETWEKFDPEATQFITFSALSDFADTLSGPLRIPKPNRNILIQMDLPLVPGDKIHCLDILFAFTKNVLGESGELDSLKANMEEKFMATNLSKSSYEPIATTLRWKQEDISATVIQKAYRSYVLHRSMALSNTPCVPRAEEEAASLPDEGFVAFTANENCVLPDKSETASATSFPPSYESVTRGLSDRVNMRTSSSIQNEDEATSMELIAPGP

Row | SMILES | inhibition at 0.1 µM [1] [%] | further results
1 | Cc1cc(F)ccc1Oc1cc(C2CC2)c(C(F)(F)F)cc1C(=O)Nc1ccc(F)c(C(C)CC(N)C(F)(F)F)c1 (centres unmarked) [Example 53, N-(3-(4-Amino-5,5,5-trifluoropentan-2-yl)-4-fluorophenyl)-4-cyclopropyl-2-(4-fluoro-2-methylphenoxy)-5-(trifluoromethyl) benzamide] | < 20 | –
2 | Cc1cc(F)ccc1Oc1cc(C2CC2)c(C(F)(F)F)cc1C(=O)Nc1ccc(F)c(C(C)CC(O)CNC(C)(C)C)c1 (centres unmarked) [Example 54, N-(3-(5-(tert-butylamino)-4-hydroxypentan-2-yl)-4-fluorophenyl)-4-cyclopropyl-2-(4-fluoro-2-methylphenoxy)-5-(trifluoromethyl) benzamide] | 50 to 80 | –
3 | Cc1cc(F)ccc1Oc1cc(C2CC2)c(C(F)(F)F)cc1C(=O)Nc1ccc(F)c(C(C)C(O)CNC(C)(C)C)c1 (centres unmarked) [Example 55, N-(3-(4-(tert-butylamino)-3-hydroxybutan-2-yl)-4-fluorophenyl)-4-cyclopropyl-2-(4-fluoro-2-methylphenoxy)-5-(trifluoromethyl) benzamide] | > 80 | –
4 | Cc1cc(F)ccc1Oc1cc(C2CC2)c(C(F)(F)F)cc1C(=O)Nc1ccc(F)c(O)c1 [Example 56, 4-cyclopropyl-2-(4-fluoro-2-methylphenoxy)-N-(4-fluoro-3-hydroxyphenyl)-5-(trifluoromethyl) benzamide] | 50 to 80 | –
5 | Cc1cc(F)ccc1Oc1cc(C2CC2)c(C(F)(F)F)cc1C(=O)Nc1ccc(F)c(OCC(O)CN)c1 (centres unmarked) [Example 57, N-(3-(3-amino-2-hydroxypropoxy)-4-fluorophenyl)-4-cyclopropyl-2-(4-fluoro-2-methylphenoxy)-5-(trifluoromethyl) benzamide] | > 80 | –
6 | Cc1cc(F)ccc1Oc1cc(C2CC2)c(C(F)(F)F)cc1C(=O)Nc1ccc(F)c(OC2CC(N)C2)c1 (centres unmarked) [Example 58, N-(3-(3-aminocyclobutoxy)-4-fluorophenyl)-4-cyclopropyl-2-(4-fluoro-2-methylphenoxy)-5-(trifluoromethyl) benzamide] | 50 to 80 | –
7 | Cc1cc(F)ccc1Oc1cc(C2CC2)c(C(F)(F)F)cc1C(=O)Nc1ccc(F)c(OCCNS(C)(=O)=O)c1 [Example 59, 4-cyclopropyl-2-(4-fluoro-2-methylphenoxy)-N-(4-fluoro-3-(2-(methylsulfonamido)ethoxy)phenyl)-5-(trifluoromethyl) benzamide] | 20 to 50 | –
8 | Cc1cc(F)ccc1Oc1cc(C2CC2)c(C(F)(F)F)cc1C(=O)Nc1ccc(F)c(OCC(O)C(F)(F)F)c1 (centres unmarked) [Example 60, 4-cyclopropyl-2-(4-fluoro-2-methylphenoxy)-N-(4-fluoro-3-(3,3,3-trifluoro-2-hydroxypropoxy)phenyl)-5-(trifluoromethyl) benzamide] | < 20 | –
9 | Cc1cc(F)ccc1Oc1cc(C2CC2)c(C(F)(F)F)cc1C(=O)Nc1ccc(F)c(OCC(=O)NCC(F)(F)F)c1 [Example 61] | 20 to 50 | –
10 | Cc1cc(F)ccc1Oc1cc(C2CC2)c(C(F)(F)F)cc1C(=O)Nc1ccc(F)c(OCCOC(N)=O)c1 [Example 62, (2-(5-(4-Cyclopropyl-2-(4-fluoro-2-methylphenoxy)-5-(trifluoromethyl)benzamido)-2-fluorophenoxy)ethyl) carbamate] | – | inhibition at 0.1 µM (HEK293, read-out: Inhibition ratio of compounds against Nav1.8 (Activity of inhibition)): 50 to 80%
11 | Cc1cc(F)ccc1Oc1cc(C2CC2)c(C(F)(F)F)cc1C(=O)Nc1ccnc(OCC(O)CO)c1 (centres unmarked) [Example 63, 4-Cyclopropyl-N-(2-(2,3-dihydroxypropoxy)pyridin-4-yl)-2-(4-fluoro-2-methylphenoxy)-5-(trifluoromethyl) benzamide] | – | Inhibition ratio of compounds against Nav1.8 (Activity of inhibition) (100 nm concentration, HEK293 cells, resting protocol): B (80 > B >= 50)
12 | Cc1cc(F)ccc1Oc1cc(C2CC2)c(C(F)(F)F)cc1C(=O)Nc1ccnc(OCC(O)CNC(C)(C)C)c1 (centres unmarked) [Example 64, N-(2-(3-(tert-butylamino)-2-hydroxypropoxy)pyridin-4-yl)-4-cyclopropyl-2-(4-fluoro-2-methylphenoxy)-5-(trifluoromethyl) benzamide] | 20 to 50 | –
13 | Cc1cc(F)ccc1Oc1cc(C2CC2)c(C(F)(F)F)cc1C(=O)Nc1ccc(F)c(OCC(O)CNC(=O)CO)c1 (centres unmarked) [Example 65, 4-Cyclopropyl-2-(4-fluoro-2-methylphenoxy)-N-(4-fluoro-3-(2-hydroxy-3-(2-hydroxyacetylamino)propoxy)phenyl)-5-(trifluoromethyl) benzamide] | > 80 | –
14 | Cc1cc(F)ccc1Oc1cc(C2CC2)c(C(F)(F)F)cc1C(=O)Nc1ccc(F)c(C(N)CCNC(C)(C)C)c1 (centres unmarked) [Example 66] | > 80 | –
15 | Cc1cc(F)ccc1Oc1cc(C2CC2)c(C(F)(F)F)cc1C(=O)Nc1ccc(F)c(OCC(O)CNC(C)C)c1 (centres unmarked) [Example 67] | > 80 | –
16 | Cc1cc(F)ccc1Oc1cc(C2CC2)c(C(F)(F)F)cc1C(=O)Nc1ccc(F)c(OCC2CCCN2)c1 (centres unmarked) [Example 68] | 20 to 50 | –
17 | Cc1cc(F)ccc1Oc1cc(C2CC2)c(C(F)(F)F)cc1C(=O)Nc1ccnc(C(F)(F)F)c1 [Example 69] | 20 to 50 | –
18 | Cc1cc(F)ccc1Oc1cc(C2CC2)c(C(F)(F)F)cc1C(=O)Nc1ccnc(C(C)(C)O)c1 [Example 70] | 20 to 50 | –
19 | Cc1cc(F)ccc1Oc1cc(C2CC2)c(C(F)(F)F)cc1C(=O)Nc1ccc(F)c(OC2CC(O)C2)c1 (centres unmarked) [Example 71] | 50 to 80 | –
20 | Cc1cc(F)ccc1Oc1cc(C2CC2)c(C(F)(F)F)cc1C(=O)Nc1ccc(F)c(C(CCO)N2CCCC2)c1 (centres unmarked) [Example 72] | 50 to 80 | –
21 | Cc1cc(F)ccc1Oc1cc(C2CC2)c(C(F)(F)F)cc1C(=O)Nc1ccc(F)c(C(CCO)NS(C)(=O)=O)c1 (centres unmarked) [Example 73] | 20 to 50 | –
22 | Cc1cc(F)ccc1Oc1cc(C2CC2)c(C(F)(F)F)cc1C(=O)Nc1ccc(F)c(OCc2ncc[nH]2)c1 [Example 74] | 50 to 80 | –

Row | SMILES | inhibition at 0.1 µM [1] [%] | further results
23 | Cc1cc(F)ccc1Oc1cc(C2CC2)c(C(F)(F)F)cc1C(=O)Nc1ccc(F)c(OCc2nccs2)c1 [Example 75] | 50 to 80 | –
24 | Cc1cc(F)ccc1Oc1cc(C2CC2)c(C(F)(F)F)cc1C(=O)Nc1ccc(F)c(OCC(N)=O)c1 [Example 76] | > 80 | –
25 | Cc1cc(F)ccc1Oc1cc(C2CC2)c(C(F)(F)F)cc1C(=O)Nc1ccc(F)c(OCC(O)CNC(C)(C)C)c1 (centres unmarked) [Example 77] | > 80 | –
26 | Cc1cc(F)ccc1Oc1cc(C2CC2)c(C(F)(F)F)cc1C(=O)Nc1ccc(F)c(OCC(O)CNC2CC2)c1 (centres unmarked) [Example 78] | > 80 | –
27 | Cc1cc(F)ccc1Oc1cc(C2CC2)c(C(F)(F)F)cc1C(=O)Nc1ccc(F)c(OCC(O)CN2CCCC2)c1 (centres unmarked) [Example 79] | 20 to 50 | –
28 | Cc1cc(F)ccc1Oc1cc(C2CC2)c(C(F)(F)F)cc1C(=O)Nc1ccc(F)c(OCC2CNCCO2)c1 (centres unmarked) [Example 80] | 50 to 80 | –
29 | CC(=O)NCC(O)COc1cc(NC(=O)c2cc(C(F)(F)F)c(C3CC3)cc2Oc2ccc(F)cc2C)ccc1F (centres unmarked) [Example 81] | 50 to 80 | –
30 | Cc1cc(F)ccc1Oc1cc(C2CC2)c(C(F)(F)F)cc1C(=O)Nc1cccc(OCC(O)CNC(C)C)c1 (centres unmarked) [Example 82] | > 80 | –
31 | Cc1cc(F)ccc1Oc1cc(C2CC2)c(C(F)(F)F)cc1C(=O)Nc1ccc(F)c(OC2CCC(CO)OC2)c1 (centres unmarked) [Example 84] | 20 to 50 | –
32 | Cc1cc(F)ccc1Oc1cc(C2CC2)c(C(F)(F)F)cc1C(=O)Nc1ccc(F)c(OC2CCC(CN)OC2)c1 (centres unmarked) [Example 85] | 20 to 50 | –
33 | Cc1cc(F)ccc1Oc1cc(C2CC2)c(C(F)(F)F)cc1C(=O)Nc1ccc(F)c(OCC(O)CNC2(C(=O)O)CC2)c1 (centres unmarked) [Example 86] | 20 to 50 | –
34 | Cc1cc(F)ccc1Oc1cc(C2CC2)c(C(F)(F)F)cc1C(=O)Nc1ccc(F)c(OCC(O)CNCC(F)(F)F)c1 (centres unmarked) [Example 87] | 50 to 80 | –
35 | Cc1cc(F)ccc1Oc1cc(C2CC2)c(C(F)(F)F)cc1C(=O)Nc1ccc(F)c(OCC(=O)NC2(C(F)(F)F)CC2)c1 [Example 89] | 50 to 80 | –
36 | Cc1cc(F)ccc1Oc1cc(C2CC2)c(C(F)(F)F)cc1C(=O)Nc1ccc(F)c(OCC(O)CO)c1 (centres unmarked) [Example 90] | 50 to 80 | –
37 | Cc1cc(F)ccc1Oc1cc(C2CC2)c(C(F)(F)F)cc1C(=O)Nc1ccc(F)c(OCC(O)CNC(C)C(F)(F)F)c1 (centres unmarked) [Example 91] | 20 to 50 | –
38 | Cc1cc(F)ccc1Oc1cc(C2CC2)c(C(F)(F)F)cc1C(=O)Nc1ccc(F)c(OCC(O)CNc2ccccc2)c1 (centres unmarked) [Example 92] | 20 to 50 | –
39 | Cc1cc(F)ccc1Oc1cc(C2CC2)c(C(F)(F)F)cc1C(=O)Nc1ccc(F)c(OCC(O)CNC23CC(C2)C3)c1 (centres unmarked) [Example 93] | 50 to 80 | –
40 | Cc1cc(F)ccc1Oc1cc(C2CC2)c(C(F)(F)F)cc1C(=O)Nc1ccc(F)c(OCC(O)CNC23CC4CC(CC(C4)C2)C3)c1 (centres unmarked) [Example 94] | 50 to 80 | –
41 | COc1ccc(NCC(O)COc2cc(NC(=O)c3cc(C(F)(F)F)c(C4CC4)cc3Oc3ccc(F)cc3C)ccc2F)cc1 (centres unmarked) [Example 95] | 20 to 50 | –
42 | Cc1cc(F)ccc1Oc1cc(C2CC2)c(C(F)(F)F)cc1C(=O)Nc1ccc(F)c(OCC(O)CNc2ccc(F)cc2)c1 (centres unmarked) [Example 96] | 20 to 50 | –
43 | Cc1cc(F)ccc1Oc1cc(C2CC2)c(C(F)(F)F)cc1C(=O)Nc1ccc(F)c(OCC(O)CNc2cnn(C)c2)c1 (centres unmarked) [Example 97] | 50 to 80 | –
44 | Cc1cc(F)ccc1Oc1cc(C2CC2)c(C(F)(F)F)cc1C(=O)Nc1ccc(F)c(OCC(O)CNc2nccs2)c1 (centres unmarked) [Example 98] | > 80 | –
